Consider 23 compounds from US12252484B2, “Pyrazolopyridine compounds for the treatment of autoimmune disease” (Hoffmann-La Roche Inc., priority 2018, dated 2025).

SMILES strings stand for the structures. Where two headings read alike, the source gives them in different places.

For this experiment, the target named is T1, human TLR8 (Homo sapiens, UniProt Q9NR97).
T1 sequence (Q9NR97 27-1041): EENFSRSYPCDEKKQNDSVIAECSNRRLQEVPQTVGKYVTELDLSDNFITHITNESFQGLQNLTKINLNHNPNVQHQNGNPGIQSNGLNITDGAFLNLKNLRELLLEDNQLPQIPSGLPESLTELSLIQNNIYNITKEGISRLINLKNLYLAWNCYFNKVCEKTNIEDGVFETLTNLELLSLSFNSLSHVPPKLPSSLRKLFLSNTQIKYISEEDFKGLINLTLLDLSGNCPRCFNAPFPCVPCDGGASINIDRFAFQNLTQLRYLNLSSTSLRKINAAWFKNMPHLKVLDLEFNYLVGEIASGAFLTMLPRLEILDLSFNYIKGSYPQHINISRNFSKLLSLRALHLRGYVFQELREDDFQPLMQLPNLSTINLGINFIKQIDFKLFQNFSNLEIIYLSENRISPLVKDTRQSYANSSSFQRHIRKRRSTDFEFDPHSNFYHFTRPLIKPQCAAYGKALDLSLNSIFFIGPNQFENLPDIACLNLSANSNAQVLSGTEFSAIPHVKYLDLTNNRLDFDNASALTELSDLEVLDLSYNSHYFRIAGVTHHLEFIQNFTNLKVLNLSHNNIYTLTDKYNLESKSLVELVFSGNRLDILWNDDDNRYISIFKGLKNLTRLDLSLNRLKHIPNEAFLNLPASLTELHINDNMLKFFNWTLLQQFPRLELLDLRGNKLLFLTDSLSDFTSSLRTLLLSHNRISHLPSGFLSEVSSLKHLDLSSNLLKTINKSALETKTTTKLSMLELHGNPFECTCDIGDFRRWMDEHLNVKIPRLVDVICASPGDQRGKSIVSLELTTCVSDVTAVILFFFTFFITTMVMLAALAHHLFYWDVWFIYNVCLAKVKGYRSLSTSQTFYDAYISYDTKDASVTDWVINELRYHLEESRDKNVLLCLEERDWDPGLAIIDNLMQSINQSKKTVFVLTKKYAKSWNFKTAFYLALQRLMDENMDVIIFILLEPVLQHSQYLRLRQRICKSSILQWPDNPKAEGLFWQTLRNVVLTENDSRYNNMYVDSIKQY
Put plainly: HEK293-Blue-hTLR-8 cells assay (SEAP reporter, R848 stimulation). Type of experiment: cell-based. As to the method: The following tests were carried out in order to determine the activity of the compounds of formula (I) in HEK293-Blue-hTLR-7/8/9 cells assay.
HEK293-Blue-hTLR-8 Cells Assay:
A stable HEK293-Blue-hTLR-8 cell line was purchased from InvivoGen (Cat. #: hkb-htlr8, San Diego, California, USA). These cells were originally designed for studying the stimulation of human TLR8 by monitoring the activation of NF-κB. A SEAP (secreted embryonic alkaline phosphatase) reporter gene was placed under the control of the IFN-β minimal promoter fused to five NF-κB and AP-1-binding sites. The SEAP was induced by activating NF-κB and AP-1 via stimulating HEK-Blue hTLR8 cells with TLR8 ligands. Therefore the reporter expression was declined by TLR8 antagonist under the stimulation of a ligand, such as R848, for incubation of 20 hrs. The cell culture supernatant SEAP reporter activity was determined using QUANTI-Blue™ kit (Cat. #: rep-qb1, Invivogen, San Diego, Ca, USA) at a wavelength of 640 nm, a detection medium that turns purple or blue in the presence of alkaline phosphatase.
HEK293-Blue-hTLR8 cells were incubated at a density of 250,000˜450,000 cells/mL in a volume of 170 μL in a 96-well plate in Dulbecco's Modified Eagle's medium (DMEM) containing 4.5 g/L glucose, 50 U/mL penicillin, […], […], 2 mM L-glutamine, 10% (v/v) heat-inactivated fetal bovine serum with addition of 20 μL test compound in a serial dilution in the presence of final DMSO at 1% and 10 μL of 60 uM R848 in above DMEM, perform incubation under 37° C. in a CO2 incubator for 20 hrs. Then 20 μL of the supernatant from each well was incubated with 180 μL Quanti-blue substrate solution at 37° C. for 2 hrs and the absorbance was read at 620˜655 nm using a spectrophotometer. The signalling pathway that TLR8 activation leads to downstream NF-κB activation has been widely accepted, and therefore similar reporter assay was modified for evaluating TLR8 antagonist.

[1] abbreviates: HEK293-Blue-hTLR-8 cells, R848 ligand, 20 hrs incubation, read-out: TLR8 IC50.

Consider `C[C@@H]1CN(c2ccc(C#N)n3nccc23)C[C@H](C(=O)NC(C)(C)CO)O1` [Example 16, (2R,6R)-4-(7-cyanopyrazolo[1,5-a]pyridin-4-yl)-N-(2-hydroxy-1,1-dimethyl-ethyl)-6-methyl-morpholine-2-carboxamide], for which the IC50 (usually the concentration at which inhibition is half-maximal) under setting [1] turned out to be 210 nM.
Still for that read-out and setting: the same measure for `C[C@@H]1CN(c2ccc(C#N)n3nccc23)C[C@H](C(=O)NCC(C)(C)CN)O1` [Example 39, (2R,6R)-N-(3-amino-2,2-dimethyl-propyl)-4-(7-cyanopyrazolo[1,5-a]pyridin-4-yl)-6-methyl-morpholine-2-carboxamide]: 33 nM; for `C[C@@H]1CN(c2ccc(C#N)n3nccc23)C[C@H](C(=O)NC2CCN(C)CC2)O1` [Example 1, (2R,6R)-4-(7-cyanopyrazolo[1,5-a]pyridin-4-yl)-6-methyl-N-(1-methyl-4-piperidyl)morpholine-2-carboxamide]: 7 nM.
For the compound `C[C@@H]1CN(c2ccc(C#N)n3nccc23)C[C@H](C(=O)NC2CC3(CNC3)C2)O1` [Example 3, (2R,6R)-N-(2-azaspiro[3.3]heptan-6-yl)-4-(7-cyanopyrazolo[1,5-a]pyridin-4-yl)-6-methyl-morpholine-2-carboxamide], the IC50 under setting [1] was 95 nM.
Regarding `CCC(O)CNC(=O)[C@H]1CN(c2ccc(C#N)n3nccc23)C[C@@H](C)O1` (stereo partly drawn) [Example 13, (2R,6R)-4-(7-cyanopyrazolo[1,5-a]pyridin-4-yl)-N-(2-hydroxybutyl)-6-methyl-morpholine-2-carboxamide], under setting [1], the IC50 was determined as 570 nM.
Same read-out and setting: the value for `C[C@@H]1CN(c2ccc(C#N)n3nccc23)C[C@H](C(=O)NCC2CN(C)CCO2)O1` (stereo partly drawn) [Example 7, (2R,6R)-4-(7-cyanopyrazolo[1,5-a]pyridin-4-yl)-6-methyl-N-[(4-methylmorpholin-2-yl)methyl]morpholine-2-carboxamide] was 50 nM; that for `C[C@@H]1CN(c2ccc(C#N)n3nccc23)C[C@H](C(=O)NC2C3CNCC2COC3)O1` (stereo partly drawn) [Example 27, (2R,6R)-4-(7-cyanopyrazolo[1,5-a]pyridin-4-yl)-6-methyl-N-(3-oxa-7-azabicyclo[3.3.1]nonan-9-yl)morpholine-2-carboxamide] was 370 nM; that for `C[C@@H]1CN(c2ccc(C#N)n3ncc(F)c23)C[C@H](C(=O)NC2CCN(C)CC2)O1` [Example 47, (2R,6R)-4-(7-cyano-3-fluoro-pyrazolo[1,5-a]pyridin-4-yl)-6-methyl-N-(1-methyl-4-piperidyl)morpholine-2-carboxamide] was 5 nM.
Same read-out and setting: the same measure for `C[C@@H]1CN(c2ccc(C#N)n3nccc23)C[C@H](C(=O)NC2CCOCC2)O1` [Example 4, (2R,6R)-4-(7-cyanopyrazolo[1,5-a]pyridin-4-yl)-6-methyl-N-tetrahydropyran-4-yl-morpholine-2-carboxamide]: 910 nM; for `C[C@@H]1CN(c2ccc(C#N)n3nccc23)C[C@H](C(=O)NC2C3CCCC2CNC3)O1` (stereo partly drawn) [Example 37, (2R,6R)-N-(3-azabicyclo[3.3.1]nonan-9-yl)-4-(7-cyanopyrazolo[1,5-a]pyridin-4-yl)-6-methyl-morpholine-2-carboxamide]: 18 nM; for `C[C@@H]1CN(c2ccc(C#N)n3nccc23)C[C@H](C(=O)N[C@H]2CC[C@H](O)CC2)O1` [Example 21, Trans-(2R,6R)-4-(7-cyanopyrazolo[1,5-a]pyridin-4-yl)-N-(4-hydroxycyclohexyl)-6-methyl-morpholine-2-carboxamide]: 570 nM.
In the case of `C[C@H]1C[C@@H](NC(=O)[C@H](C)N)CN(c2ccc(C#N)n3nccc23)C1` [Example 44, (2S)-2-amino-N-[(3R,5S)-1-(7-cyanopyrazolo[1,5-a]pyridin-4-yl)-5-methyl-3-piperidyl]propanamide], under setting [1], the IC50 was 140 nM.
Regarding `C[C@@H]1CN(c2ccc(C#N)n3nccc23)C[C@H](C(=O)NCC2CNCC2(F)F)O1` (stereo partly drawn) [Example 18, (2R,6R)-4-(7-cyanopyrazolo[1,5-a]pyridin-4-yl)-N-[(4,4-difluoropyrrolidin-3-yl)methyl]-6-methyl-morpholine-2-carboxamide], the IC50 under setting [1] was 100 nM.
As to `C[C@@H]1CN(c2ccc(C#N)n3nccc23)C[C@H](C(=O)NC23CC4CC(CC(C4)C2)C3)O1` [Example 12, (2R,6R)-N-(1-adamantyl)-4-(7-cyanopyrazolo[1,5-a]pyridin-4-yl)-6-methyl-morpholine-2-carboxamide], the IC50 under setting [1] turned out to be 320 nM.
Regarding `C[C@@H]1CN(c2ccc(C#N)n3nccc23)C[C@H](C(=O)NC2CC3CCCC(C2)N3C)O1` (stereo partly drawn) [Example 35, (2R,6R)-4-(7-cyanopyrazolo[1,5-a]pyridin-4-yl)-6-methyl-N-(9-methyl-9-azabicyclo[3.3.1]nonan-3-yl)morpholine-2-carboxamide], inhibition was half-maximal at 38 nM (IC50).
Consider `C[C@@H]1CN(c2ccc(Cl)n3nccc23)C[C@H](C(=O)NC2CCN(C)CC2)O1` [Example 38, (2R,6R)-4-(7-chloropyrazolo[1,5-a]pyridin-4-yl)-6-methyl-N-(1-methyl-4-piperidyl)morpholine-2-carboxamide], for which the IC50 under setting [1] is 7 nM.
The same measure, in the same setting: the value for `C[C@@H]1CN(c2ccc(C#N)n3nccc23)C[C@H](C(=O)N[C@H]2CC[C@@H](O)CC2)O1` [Example 20, Cis-(2R,6R)-4-(7-cyanopyrazolo[1,5-a]pyridin-4-yl)-N-(4-hydroxycyclohexyl)-6-methyl-morpholine-2-carboxamide] was 190 nM; that for `C[C@@H]1CN(c2ccc(C#N)n3nccc23)C[C@H](C(=O)NC2CCNC2)O1` (stereo partly drawn) [Example 25, (2R,6R)-4-(7-cyanopyrazolo[1,5-a]pyridin-4-yl)-6-methyl-N-pyrrolidin-3-yl-morpholine-2-carboxamide] was 610 nM; that for `C[C@H]1C[C@@H](NCC#N)CN(c2ccc(C#N)n3nccc23)C1` [Example 46, 4-[(3R,5S)-3-(cyanomethylamino)-5-methyl-1-piperidyl]pyrazolo[1,5-a]pyridine-7-carbonitrile] was 240 nM.
Still for that read-out and setting: the same measure for `C[C@@H]1CN(c2ccc(C#N)n3nccc23)C[C@H](C(=O)NC2CC3CCC2CN3C)O1` (stereo partly drawn) [Example 34, (2R,6R)-4-(7-cyanopyrazolo[1,5-a]pyridin-4-yl)-6-methyl-N-(2-methyl-2-azabicyclo[2.2.2]octan-5-yl)morpholine-2-carboxamide]: 98 nM; for `C[C@@H]1CN(c2ccc(C#N)n3nccc23)C[C@H](C(=O)NC(C)(C)CN)O1` [Example 41, (2R,6R)-N-(2-amino-1,1-dimethyl-ethyl)-4-(7-cyanopyrazolo[1,5-a]pyridin-4-yl)-6-methyl-morpholine-2-carboxamide]: 140 nM.
Same read-out and setting: the value for `C[C@@H]1CN(c2ccc(C#N)n3nccc23)C[C@H](C(=O)NC2C3CNC[C@@H]32)O1` (stereo partly drawn) [Example 31, Trans-(2R,6R)-N-(3-azabicyclo[3.1.0]hexan-6-yl)-4-(7-cyanopyrazolo[1,5-a]pyridin-4-yl)-6-methyl-morpholine-2-carboxamide] was 72 nM; that for `C[C@@H]1CN(c2ccc(C#N)n3nccc23)C[C@H](C(=O)NC2CC3COCC(C2)N3)O1` (stereo partly drawn) [Example 22, Endo-(2R,6R)-4-(7-cyanopyrazolo[1,5-a]pyridin-4-yl)-6-methyl-N-[3-oxa-9-azabicyclo[3.3.1]nonan-7-yl]morpholine-2-carboxamide] was 25 nM.
